Values quoted from earlier work in patent publication US9418186B2, “Assessment of solute partitioning in crude oils” (EXXONMOBIL RESEARCH AND ENGINEERING COMPANY, priority 2012, dated 2016).
“And” between values parts separate entries of the source, which are not always exact repeats. Equal entries are not always repeated. Where two headings read alike, the source gives them in different places.

How the values were obtained:
[1] = North Sea crude oil / water
[2] = not given; remark: listed apart in the source
[3] = chloroform / water
[4] = Miller (North Sea) crude oil / water

| solubility in water [2] | SMILES | experimental partition coefficient [1] | experimental value for the log of the partition coefficient [1] | literature value for the partition coefficient in octanol-water | log K in octanol-water (literature) | experimental partition coefficient [3] | experimental value for the log of the partition coefficient [3] | experimental partition coefficient [4] | experimental value for the log of the partition coefficient [4] |
| --- | --- | --- | --- | --- | --- | --- | --- | --- | --- |
|  | S [H2S] | 4.09 | 0.612 | 27.5 | 1.44 |  |  |  |  |
| 40353 gmol/m^3 | O=C1CCCCCN1 [caprolactam] |  |  |  |  | 0.74 | −0.131 |  |  |
|  | Oc1ccccc1 [phenol] |  |  | 28.8 | 1.45 | 0.74 | −0.13 | 1.72 | 0.238 and 0.24 |
